Tests used:
Kir 2.1 channel = molecular target: T1, Kir 2.1 channel (Homo sapiens, UniProt P63252); test: Kir channel current in HEK-Kir cells, voltage clamp method; format: cell-based; conditions: 100 μM Ba ions, FIG. 2A
T1 construct: expressed in transfected cells
T1 sequence (P63252 1-427): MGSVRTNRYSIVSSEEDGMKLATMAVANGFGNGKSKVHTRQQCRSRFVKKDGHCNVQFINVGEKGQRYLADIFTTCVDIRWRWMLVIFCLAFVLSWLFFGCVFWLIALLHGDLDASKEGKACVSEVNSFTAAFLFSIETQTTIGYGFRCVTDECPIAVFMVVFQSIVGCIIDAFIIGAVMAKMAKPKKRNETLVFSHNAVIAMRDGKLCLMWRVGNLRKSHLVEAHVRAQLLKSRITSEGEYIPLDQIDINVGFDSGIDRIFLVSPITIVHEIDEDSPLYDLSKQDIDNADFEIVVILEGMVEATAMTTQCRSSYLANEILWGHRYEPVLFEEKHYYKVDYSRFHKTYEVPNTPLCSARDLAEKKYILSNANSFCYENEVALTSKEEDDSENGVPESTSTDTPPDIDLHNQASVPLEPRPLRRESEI
Description: (§1) Human-derived embryonic kidney cells (HEK293 cells) were purchased from the Health Sciences Research Resource Bank (HSRRB). 10% FBS (Gibco Corp.) was added thereto followed by culturing at 37° C. in 5% CO2 in D-MEM medium (Wako Pure Chemical Industries, Ltd.) containing 100 U/ml penicillin (Wako Pure Chemical Industries, Ltd.) and 100 μg/ml streptomycin (Meiji Seika Kaisha, Ltd.). pcDNA/Kir 2.1, obtained by subcloning human-derived Kir 2.1 (NM_00891.2) in pcDNA3.1(+) (Invitrogen Corp.), was inserted using Lipofectamine 2000 reagent (Invitrogen Corp.) followed by culturing in medium obtained by adding 0.2 mg/ml Zeocin (Invitrogen Corp.) to the above-mentioned D-MEM medium and then cloning Zeocin resistant cells to produce Kir 2.1 constantly expressing cells (HEK-Kir). In addition, the inactivated mutant Nav-QQQ (HEK-Kir-mutated Nay) was inserted into the Kir 2.1 constantly expressing cells using the same method followed by conducting experiments 24 to 72 hours later.
Kir channel current was measured by applying the voltage clamp method to HEK-Kir cells.

HEK-Kir cells = test: Membrane potential of HEK-Kir cells, current clamp method; format: cell-based, human; conditions: 100 μM Ba ions, resting potential about −70 mV before, FIG. 2B
[1] = system: HEK-Kir-mutated Nav cells; test: DiBAC4(3) membrane potential fluorescence under high K+ stimulation in HEK-Kir-mutated Nav cells; format: cell-based, human; conditions: 1 mM lidocaine, extracellular K ion 5.9 mM to 15.3 mM, FIG. 17
Description: In the present example, a study was conducted on measurement of membrane potential using a membrane potential-sensitive dye in the form of DiBAC4(3), and using an extracellular solution containing K ions at a high concentration for depolarizing stimulation.
After loading two types of cells (HEK and HEK-Kir-mutated Nav cells) with 100 nM DiBAC4(3) (bis(1,3-dibutylbarbituric acid)trimethine oxanol) in normal HEPES buffer containing the dye for 30 minutes at room temperature, and fluorescence was measured at 520 nm or higher by exciting at 488 nm and reflecting with a dichroic mirror at 505 nm. In addition, high K^+ extracellular fluid having an increased K ion concentration was used as a stimulus to depolarize the cell membrane. This is because K ions are primarily involved in formation of resting membrane potential. […] In the present example, changes in fluorescence intensity of two types of cells were measured using this depolarizing stimulus. Furthermore, measurements were carried out based on a value of 1 for fluorescence intensity in the case of making the extracellular K ion concentration to be 140 mM K^+. The Argus/HiSCA high-speed, cooled CCD camera fluorescent imaging system (Hamamatsu Photonics K.K.) was used to measure fluorescence.

[2] = system: HEK-Kir-mutated Nav cells; test: Cell death by electrical stimulation, MTT method, HEK-Kir-mutated Nav cells; format: cell-based, human; conditions: square wave 80 mA, 200 ms, three times at 3 min intervals, FIG. 6
Description: as §1, with “In addition, the inactivated mutant Nav-QQQ (HEK-Kir-mutated Nay) was inserted into the Kir 2.1 constantly expressing cells using the same method followed by conducting experiments 24 to 72 hours later.” left out
It was clearly determined from the results described in section 2 above that an extremely long action potential is generated in the mutant type Nav 1.5 channel. Since there is thought to be the possibility of cell death occurring when the action potential is generated by electrical stimulation, cell death attributable to electrical stimulation was measured. […] On the basis thereof, cell death was determined to occur in HEK-Kir-mutated Nav cells as a result of generating an extremely long action potential, while inhibition of Na ion channels blocked cell death.

| Structure (SMILES) | inward Kir channel current (Kir 2.1 channel) | resting membrane potential (HEK-Kir cells) | changes in fluorescence caused by high K+ stimulation [1] | occurrence of cell death attributable to electrical stimulation [2] |
| --- | --- | --- | --- | --- |
| [Ba+2] [Ba ions] | inhibited | became shallow | – | – |
| CCN(CC)CC(=O)Nc1c(C)cccc1C [lidocaine] | – | – | inhibited | inhibited |

Source: patent US9133496B2, “Material for screening for compound acting on ion channel and use thereof” (priority 2010, dated 2015)
